This data set is described as follows: In vitro rat liver S9 stability assay (formation of tafamidis). Type of data set: in vitro ADME. As to conditions: rat liver S9, 1 μM test compound, 37° C. Here is the method:
A stability assay in liver S9 (rat or human) was used to evaluate the ability of a compound provided herein to convert to an active TTR stabilizer. The test compound was added to liver S9 and incubated at 37° C. in a water bath at a concentration of 1 μM. At each time point (0, 5, 10, 20, 30 and 60 min), stop solution (tolbutamide plus labetalol) was added to precipitate protein and mixed thoroughly. After centrifugation, an aliquot of supernatant was analyzed by LC-MS/MS. The percentage of formation of active agent was calculated at each time point.
On to `CC(CO)NC(=O)c1ccc2nc(-c3cc(Cl)cc(Cl)c3)oc2c1` (stereo not shown) [Compound 10, 2-(3,5-dichlorophenyl)-N-(1-hydroxypropan-2-yl)benzo[d]oxazole-6-carboxamide], for which the “Formation of tafamidis at 60 min” value is on record as “A (A is <25%)”.
Consider `CC(O)CNC(=O)c1ccc2nc(-c3cc(Cl)cc(Cl)c3)oc2c1` (stereo not shown) [Compound 11, 2-(3,5-dichlorophenyl)-N-(2-hydroxypropyl)benzo[d]oxazole-6-carboxamide], for which the “Formation of tafamidis at 60 min” value is on record as “A (A is <25%)”.
Turning to `O=C(NC1CC1(F)F)c1ccc2nc(-c3cc(Cl)cc(Cl)c3)oc2c1` (stereo not shown) [Compound 12, 2-(3,5-dichlorophenyl)-N-(2,2-difluorocyclopropyl)benzo[d]-oxazole-6-carboxamide], the “Formation of tafamidis at 60 min” value is given as “A (A is <25%)”.
Consider `O=C(NC1CCCCC1(F)F)c1ccc2nc(-c3cc(Cl)cc(Cl)c3)oc2c1` (stereo not shown) [Compound 13, 2-(3,5-dichlorophenyl)-N-(2,2-difluorocyclohexyl)benzo[d]oxazole-6-carboxamide], for which the “Formation of tafamidis at 60 min” value was “A (A is <25%)”.
Take `O=C(NC1CCCC(F)(F)C1)c1ccc2nc(-c3cc(Cl)cc(Cl)c3)oc2c1` (stereo not shown) [Compound 14, 2-(3,5-dichlorophenyl)-N-(3,3-difluorocyclohexyl)benzo[d]oxazole-6-carboxamide]: the “Formation of tafamidis at 60 min” value was “A (A is <25%)”.
As to `O=C(NC1CCC(F)(F)CC1)c1ccc2nc(-c3cc(Cl)cc(Cl)c3)oc2c1` [Compound 15, 2-(3,5-dichlorophenyl)-N-(4,4-difluorocyclohexyl)benzo[d]oxazole-6-carboxamide], the “Formation of tafamidis at 60 min” value is reported as “A (A is <25%)”.
Turning to `O=C(NC1COC1)c1ccc2nc(-c3cc(Cl)cc(Cl)c3)oc2c1` [Compound 16, 2-(3,5-dichlorophenyl)-N-(oxetan-3-yl)benzo[d]oxazole-6-carboxamide], the “Formation of tafamidis at 60 min” value is on record as “A (A is <25%)”.
Consider `O=C(NC1CCOC1)c1ccc2nc(-c3cc(Cl)cc(Cl)c3)oc2c1` (stereo not shown) [Compound 17, 2-(3,5-dichlorophenyl)-N-(tetrahydrofuran-3-yl)benzo[d]oxazole-6-carboxamide], for which the “Formation of tafamidis at 60 min” value is “A (A is <25%)”.
With `O=C(NC1CCC1)c1ccc2nc(-c3cc(Cl)cc(Cl)c3)oc2c1` [Compound 18, N-cyclobutyl-2-(3,5-dichlorophenyl)benzo[d]oxazole-6-carboxamide], the “Formation of tafamidis at 60 min” value was “A (A is <25%)”.
In the case of `O=C(NC1CCCC1)c1ccc2nc(-c3cc(Cl)cc(Cl)c3)oc2c1` [Compound 19, N-cyclopentyl-2-(3,5-dichlorophenyl)benzo[d]oxazole-6-carboxamide], the “Formation of tafamidis at 60 min” value is “A (A is <25%)”.
For `O=C(NC1CC1)c1ccc2nc(-c3cc(Cl)cc(Cl)c3)oc2c1` [Compound 20, N-cyclopropyl-2-(3,5-dichlorophenyl)benzo[d]oxazole-6-carboxamide] the value was “A (A is <25%)”; for `CN1CCC(NC(=O)c2ccc3nc(-c4cc(Cl)cc(Cl)c4)oc3c2)C1` (stereo not shown) [Compound 21, 2-(3,5-dichlorophenyl)-N-(1-methylpyrrolidin-3-yl)benzo[d]oxazole-6-carboxamide], “A (A is <25%)”; for `O=C(NC1CCN(CCF)C1)c1ccc2nc(-c3cc(Cl)cc(Cl)c3)oc2c1` (stereo not shown) [Compound 22, 2-(3,5-dichlorophenyl)-N-(1-(2-fluoroethyl)pyrrolidin-3-yl)benzo[d]oxazole-6-carboxamide], “A (A is <25%)”.
As to `O=C(NC1CCN(CC(F)F)C1)c1ccc2nc(-c3cc(Cl)cc(Cl)c3)oc2c1` (stereo not shown) [Compound 23, 2-(3,5-dichlorophenyl)-N-(1-(2,2-difluoroethyl)pyrrolidin-3-yl)benzo[d]oxazole-6-carboxamide], the “Formation of tafamidis at 60 min” value is given as “A (A is <25%)”.
For `O=C(NC1CCN(CC(F)(F)F)C1)c1ccc2nc(-c3cc(Cl)cc(Cl)c3)oc2c1` (stereo not shown) [Compound 24, 2-(3,5-dichlorophenyl)-N-(1-(2,2,2-trifluoroethyl)pyrrolidin-3-yl)benzo[d]oxazole-6-carboxamide], the “Formation of tafamidis at 60 min” value is reported as “A (A is <25%)”.
For the molecule `O=C(N[C@H]1C[C@H](O)C1)c1ccc2nc(-c3cc(Cl)cc(Cl)c3)oc2c1` [Compound 26, 2-(3,5-dichlorophenyl)-N-((trans)-3-hydroxycyclobutyl)-benzo[d]oxazole-6-carboxamide], the “Formation of tafamidis at 60 min” value is reported as “A (A is <25%)”.
For `O=C(N[C@H]1C[C@@H](O)C1)c1ccc2nc(-c3cc(Cl)cc(Cl)c3)oc2c1` [Compound 27, 2-(3,5-dichlorophenyl)-N-((Cis)-3-hydroxycyclobutyl)benzo-[d]oxazole-6-carboxamide] the value was “A (A is <25%)”; for `O=C(OCCc1ccn[nH]1)c1ccc2nc(-c3cc(Cl)cc(Cl)c3)oc2c1` [Compound 36, 2-(1H-pyrazol-5-yl) ethyl 2-(3,5-dichlorophenyl)benzo[d]oxazole-6-carboxylate], “D (D is ≥75%)”.
For `CCC(Cc1ncc[nH]1)OC(=O)c1ccc2nc(-c3cc(Cl)cc(Cl)c3)oc2c1` (stereo not shown) [Compound 37, 1-(1H-imidazol-2-yl) butan-2-yl 2-(3,5-dichlorophenyl)benzo-[d]oxazole-6-carboxylate] the value was “A (A is <25%)”; for `CC(Cc1ccn[nH]1)OC(=O)c1ccc2nc(-c3cc(Cl)cc(Cl)c3)oc2c1` (stereo not shown) [Compound 38, 1-(1H-pyrazol-5-yl)propan-2-yl 2-(3,5-dichlorophenyl) benzo[d]oxazole-6-carboxylate], “B (B is ≥25 to <50%)”; for `O=C(OCCCO)c1ccc2nc(-c3cc(Cl)cc(Cl)c3)oc2c1` [Compound 40, 3-hydroxypropyl 2-(3,5-dichlorophenyl)benzo[d]oxazole-6-carboxylate], “B (B is ≥25 to <50%)”.
For `CC(CCO)OC(=O)c1ccc2nc(-c3cc(Cl)cc(Cl)c3)oc2c1` (stereo not shown) [Compound 41, 4-hydroxybutan-2-yl 2-(3,5-dichlorophenyl) benzo [d] oxazole-6-carboxylate], the “Formation of tafamidis at 60 min” value is listed as “C (C is ≥50 to <75%)”.
On to `CC(N1CCC(OC(=O)c2ccc3nc(-c4cc(Cl)cc(Cl)c4)oc3c2)C1)C(F)(F)F` (stereo not shown) [Compound 45, 1-(1,1,1-trifluoropropan-2-yl)pyrrolidin-3-yl 2-(3,5-dichlorophenyl)benzo[d]oxazole-6-carboxylate], for which the “Formation of tafamidis at 60 min” value was “B (B is ≥25 to <50%)”.
As for `CC1(C)CCC(OC(=O)c2ccc3nc(-c4cc(Cl)cc(Cl)c4)oc3c2)C1` (stereo not shown) [Compound 48, 3,3-dimethylcyclopentyl 2-(3,5-dichlorophenyl)benzo[d]oxazole-6-carboxylate], the “Formation of tafamidis at 60 min” value is recorded as “B (B is ≥25 to <50%)”.
For `O=C(OC1CCN(c2cccnc2)C1)c1ccc2nc(-c3cc(Cl)cc(Cl)c3)oc2c1` (stereo not shown) [Compound 49, 1-(pyridin-3-yl)pyrrolidin-3-yl 2-(3,5-dichlorophenyl)benzo-[d]oxazole-6-carboxylate], the “Formation of tafamidis at 60 min” value was “B (B is ≥25 to <50%)”.
Regarding `O=C(OC1CCN(c2ccncc2)C1)c1ccc2nc(-c3cc(Cl)cc(Cl)c3)oc2c1` (stereo not shown) [Compound 50, 1-(pyridin-4-yl)pyrrolidin-3-yl 2-(3,5-dichlorophenyl)benzo-[d]oxazole-6-carboxylate], the “Formation of tafamidis at 60 min” value was “A (A is <25%)”.
`O=C(OC1CCN(c2ncccn2)C1)c1ccc2nc(-c3cc(Cl)cc(Cl)c3)oc2c1` (stereo not shown) [Compound 51, 1-(pyrimidin-2-yl)pyrrolidin-3-yl 2-(3,5-dichlorophenyl)benzo-[d]oxazole-6-carboxylate]: the “Formation of tafamidis at 60 min” value was “B (B is ≥25 to <50%)”.
Turning to `O=C(OC1CCN(c2cnccn2)C1)c1ccc2nc(-c3cc(Cl)cc(Cl)c3)oc2c1` (stereo not shown) [Compound 52, 1-(pyrazin-2-yl)pyrrolidin-3-yl 2-(3,5-dichlorophenyl)benzo-[d]oxazole-6-carboxylate], the “Formation of tafamidis at 60 min” value was “A (A is <25%)”.
Next, `O=C(OC1CCN(c2ccncn2)C1)c1ccc2nc(-c3cc(Cl)cc(Cl)c3)oc2c1` (stereo not shown) [Compound 53, 1-(pyrimidin-4-yl)pyrrolidin-3-yl 2-(3,5-dichlorophenyl)benzo-[d]oxazole-6-carboxylate]: “A (A is <25%)”; `O=C(OC1CCN(c2cccnn2)C1)c1ccc2nc(-c3cc(Cl)cc(Cl)c3)oc2c1` (stereo not shown) [Compound 54, 1-(pyridazin-3-yl)pyrrolidin-3-yl 2-(3,5-dichlorophenyl)benzo-[d]oxazole-6-carboxylate]: “A (A is <25%)”.
Next, `O=C(OC1CCN2CCCCC12)c1ccc2nc(-c3cc(Cl)cc(Cl)c3)oc2c1` (stereo not shown) [Compound 55, Octahydroindolizin-1-yl 2-(3,5-dichlorophenyl)benzo[d]oxazole-6-carboxylate]: “B (B is ≥25 to <50%)”; `Cc1ncc2n1CC(OC(=O)c1ccc3nc(-c4cc(Cl)cc(Cl)c4)oc3c1)CC2` (stereo not shown) [Compound 56, 3-methyl-5,6,7,8-tetrahydroimidazo [1,5-a] pyridin-6-yl 2-(3,5-dichlorophenyl) benzo[d]oxazole-6-carboxylate]: “A (A is <25%)”; `CC(C)(N1CCC(OC(=O)c2ccc3nc(-c4cc(Cl)cc(Cl)c4)oc3c2)C1)C(F)(F)F` (stereo not shown) [Compound 57, 1-(1,1,1-trifluoro-2-methylpropan-2-yl)pyrrolidin-3-yl 2-(3,5-dichlorophenyl)benzo[d]oxazole-6-carboxylate]: “A (A is <25%)”.
Next, `O=C(OC1CCc2nc[nH]c2C1)c1ccc2nc(-c3cc(Cl)cc(Cl)c3)oc2c1` (stereo not shown) [Compound 60, 4,5,6,7-tetrahydro-1H-benzo[d]imidazol-6-yl 2-(3,5-dichlorophenyl) benzo[d]oxazole-6-carboxylate]: “A (A is <25%)”.

(Values after US20240190831A1, “TRANSTHYRETIN STABILIZING COMPOUNDS” (Protego Biopharma, Inc., priority 2021, published 2024).)
